Experimental data taken from patent US5981541A, “Substituted heterocycles as anti-tumor agents” (Rutgers, The State University of New Jersey, priority 1997, dated 1999).

biological target: T1, calf thymus topoisomerase II (Bos taurus, UniProt F1MDU7); assay: Topo II-mediated DNA cleavage assay; format: biochemical; conditions: concentration relative to VM26 (= 1) producing the same cleavage on plasmid DNA in the presence of calf thymus topoisomerase II
T1 construct: from tissue; host or cells: calf thymus glands
Description: The plasmid pET11a and the E. coli strain BL21(DE3) used for enzyme expression were purchased from Novagen. IPTG was purchased from Sigma. The ECL system used for the Western blotting analysis of bacterial lysates was from Amersham (UK). All the restriction enzymes and Vent polymerase were from New England Biolabs. Mammalian topoisomerase II was isolated from calf thymus glands according to the published procedure (Halligan et al., J. Biol. Chem. 260:2475-2482 (1985)). The single copy yeast plasmids YCpGAL1 expressing various topoisomerase I genes in JN2-134 yeast strain were a kind gift of Dr. M-A. Bjornsti (Thomas Jefferson University, Philadelphia, Pa.). All bacterial and yeast media were from Difco (Detroit, Mich.), while cell culture media were purchased from Gibco-BRL (Gaithersburg, Md.).
(§1) Cleavage assays for the recombinant topoisomerases I and calf thymus topoisomerases I and II were done as described (Liu et al., J. Biol. Chem. 258:15365-15370 (1983)). The plasmid YEpG DNA used for the cleavage assays was prepared and labeled at its 3'-end using the published procedures.

T1 sequence (F1MDU7 1-1532): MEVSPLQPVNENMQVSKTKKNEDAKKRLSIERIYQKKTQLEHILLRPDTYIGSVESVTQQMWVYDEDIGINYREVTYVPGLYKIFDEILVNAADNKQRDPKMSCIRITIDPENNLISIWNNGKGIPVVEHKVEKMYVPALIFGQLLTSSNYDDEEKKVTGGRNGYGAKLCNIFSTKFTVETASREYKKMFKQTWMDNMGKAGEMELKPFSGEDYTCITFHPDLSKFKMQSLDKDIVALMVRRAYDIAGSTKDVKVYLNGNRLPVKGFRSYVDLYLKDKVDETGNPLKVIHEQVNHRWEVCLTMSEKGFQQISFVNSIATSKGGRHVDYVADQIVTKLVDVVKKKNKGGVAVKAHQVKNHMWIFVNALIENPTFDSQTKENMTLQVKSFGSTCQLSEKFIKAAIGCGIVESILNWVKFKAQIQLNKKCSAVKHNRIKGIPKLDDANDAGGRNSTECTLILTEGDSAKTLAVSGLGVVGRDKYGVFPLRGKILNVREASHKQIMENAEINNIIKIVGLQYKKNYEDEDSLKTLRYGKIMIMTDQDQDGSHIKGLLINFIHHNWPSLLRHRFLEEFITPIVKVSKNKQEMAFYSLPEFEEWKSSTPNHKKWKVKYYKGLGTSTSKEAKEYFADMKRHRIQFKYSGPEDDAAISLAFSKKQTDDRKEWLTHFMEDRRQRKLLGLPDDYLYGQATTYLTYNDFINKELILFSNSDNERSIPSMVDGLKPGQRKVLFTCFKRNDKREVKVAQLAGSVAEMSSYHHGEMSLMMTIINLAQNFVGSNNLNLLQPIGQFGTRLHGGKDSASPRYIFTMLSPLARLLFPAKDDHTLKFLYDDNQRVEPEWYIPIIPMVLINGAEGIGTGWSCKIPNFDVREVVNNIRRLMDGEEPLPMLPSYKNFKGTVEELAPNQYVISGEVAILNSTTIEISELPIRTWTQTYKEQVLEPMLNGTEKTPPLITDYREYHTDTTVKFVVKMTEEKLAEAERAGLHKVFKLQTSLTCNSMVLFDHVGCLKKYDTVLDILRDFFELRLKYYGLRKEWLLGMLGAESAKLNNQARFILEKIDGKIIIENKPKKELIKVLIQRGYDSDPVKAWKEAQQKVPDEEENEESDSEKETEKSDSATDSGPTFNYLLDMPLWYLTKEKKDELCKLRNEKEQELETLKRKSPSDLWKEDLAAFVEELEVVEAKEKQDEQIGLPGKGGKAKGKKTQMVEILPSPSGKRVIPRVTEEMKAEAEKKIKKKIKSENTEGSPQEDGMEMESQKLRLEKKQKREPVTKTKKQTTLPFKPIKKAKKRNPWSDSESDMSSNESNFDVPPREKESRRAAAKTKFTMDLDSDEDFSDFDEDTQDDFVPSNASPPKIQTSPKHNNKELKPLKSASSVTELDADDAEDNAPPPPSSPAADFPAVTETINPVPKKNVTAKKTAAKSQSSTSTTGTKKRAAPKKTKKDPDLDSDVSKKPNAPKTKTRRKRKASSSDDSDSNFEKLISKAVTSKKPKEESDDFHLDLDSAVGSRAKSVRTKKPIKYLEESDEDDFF

Row | SMILES | Topo II-mediated DNA cleavage (REC, Relative Effective Concentration)
1 | CC[C@@]1(O)C(=O)OCc2c1cc1n(c2=O)Cc2cc3ccccc3nc2-1 [CPT, Camptothecin, reference compound] | > 1000
2 | COc1cc2c(cc1OC)-c1nc3cc(OC)c(OC)cc3c(C)c1CC2 [Compound 6, 2,3,9,10-Tetramethoxy-7-methyl-5,6-dihydrobenz[c]acridine] | > 1000
3 | COc1cc2ccc3c(C)c4cc(OC)c(OC)cc4nc3c2cc1OC [Compound 7, 2,3,9,10-Tetramethoxy-7-methylbenz[c]acridine] | > 1000
4 | COc1cc2c(cc1OC)-c1c(c(C)c3cc(OC)c(OC)cc3[n+]1C)CC2 [Compound 8, 2,3,9,10-Tetramethoxy-7,1 2-dimethyl-5,6-dihydrobenz[c]acridinium methosulfate] | > 1000
5 | COc1cc2ccc3c(C)c4cc(OC)c(OC)cc4[n+](C)c3c2cc1OC [Compound 9, 2,3,9,10-Tetramethoxy-7,1 2-dimethylbenz [c]acridinium methosulfate] | > 1000

The remaining lines, values ahead:

Row | Topo II-mediated DNA cleavage (REC, Relative Effective Concentration) | SMILES
6 | > 1000 | COc1cc2c(cc1OC)-c1cc3cc(OC)c(OC)cc3nc1CC2 [Compound 13a, 2,3,9,10-Tetramethoxy-5,6-dihydrobenz[a]acridine]
7 | > 1000 | COc1cc2c(cc1OC)-c1cc3cc4c(cc3nc1CC2)OCO4 [Compound 13b, 2,3,-Dimethoxy-9,10-methylenedioxy-5,6-dihydrobenz[a]acridine]
8 | > 1000 | COc1cc2cc3c(nc2cc1OC)CCc1ccccc1-3 [Compound 13c, 9,10-Dimethoxy-5,6-dihydrobenz[a]acridine]

biological target: T2, human topoisomerase I (Homo sapiens, UniProt P11387); assay: Topo I-mediated DNA cleavage assay; format: biochemical; conditions: concentration relative to camptothecin (CPT = 1) producing the same cleavage on plasmid DNA in the presence of human topoisomerase I
T2 construct: 15 amino acid fusion from pET-11a vector (N); made in house; host or cells: E. coli BL21(DE3)
T2 sequence (P11387 1-765): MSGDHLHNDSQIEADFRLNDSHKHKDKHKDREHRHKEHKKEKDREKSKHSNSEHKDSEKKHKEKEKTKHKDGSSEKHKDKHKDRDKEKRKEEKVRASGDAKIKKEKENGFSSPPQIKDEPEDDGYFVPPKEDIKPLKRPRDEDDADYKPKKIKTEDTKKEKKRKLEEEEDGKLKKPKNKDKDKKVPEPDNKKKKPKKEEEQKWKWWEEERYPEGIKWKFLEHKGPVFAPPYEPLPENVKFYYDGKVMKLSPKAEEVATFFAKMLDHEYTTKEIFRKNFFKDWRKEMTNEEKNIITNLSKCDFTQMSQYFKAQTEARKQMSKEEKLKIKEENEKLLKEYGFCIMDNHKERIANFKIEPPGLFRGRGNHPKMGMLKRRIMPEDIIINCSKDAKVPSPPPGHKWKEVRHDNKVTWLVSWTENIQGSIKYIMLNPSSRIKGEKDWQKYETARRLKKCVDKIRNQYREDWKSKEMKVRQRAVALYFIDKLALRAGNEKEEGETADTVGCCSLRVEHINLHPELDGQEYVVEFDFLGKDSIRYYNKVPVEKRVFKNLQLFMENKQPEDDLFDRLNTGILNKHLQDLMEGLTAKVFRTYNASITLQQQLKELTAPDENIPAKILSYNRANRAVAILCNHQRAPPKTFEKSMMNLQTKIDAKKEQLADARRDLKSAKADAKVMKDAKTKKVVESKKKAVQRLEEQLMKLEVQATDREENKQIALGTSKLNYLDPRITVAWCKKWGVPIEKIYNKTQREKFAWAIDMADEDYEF
Description: To obtain large quantity of human topoisomerase I, the human topoisomerase I cDNA was cloned into the pET-11a vector, in which transcription of the cDNA is under the control of the inducible T7 promoter (Studier et al., Methods in Enzymol., Vol. 185:60-89, San Diego: Academic Press (1990)). Briefly, a 3.4 kb DNA fragment containing the entire coding sequence of human topoisomerase I and approximately 1 kb of untranslated region downstream of the stop codon was isolated from the plasmid YCpGAL1-hTOP1 (Bjornsti et al., Cancer Res. 49:6318-6323 (1989)) by cutting at the BamHI and EcoRI sites. The vector pET-11a was cut with the same restriction enzymes, dephosphorylated and ligated to the insert in the proper reading frame downstream of the vector cloning site. […] Since the translational start in pET is positioned at an upstream NdeI site, the expressed topoisomerase I has a 15 amino acid fusion at its N-terminus. pET1B was then transformed into E. coli BL21 (DE3), and, upon induction with 0.4 mM IPTG for 1 hour, the bacterial lysate was analyzed by 10% SDS-PAGE. […] Briefly, E. coli cells were lysed by repeated sonic bursts. The sonic extract was made in 1 M NaCl and 6% polyethylene glycol (PEG) to remove nucleic acids. The PEG supernatant was chromatographed directly on a hydroxyapatite column. […] The eluted enzyme was dialyzed against 50% glycerol, 30 mM potassium phosphate (pH 7.0), 1 mM dithiothreitol (DTT) and 0.1 mM EDTA and stored at -20° C.
as §1

Row | SMILES | Topo I-mediated DNA cleavage (REC, Relative Effective Concentration)
9 | CC[C@@]1(O)C(=O)OCc2c1cc1n(c2=O)Cc2cc3ccccc3nc2-1 [CPT, Camptothecin, reference compound] | 1
10 | COc1cc2c(cc1OC)-c1nc3cc(OC)c(OC)cc3c(C)c1CC2 [Compound 6, 2,3,9,10-Tetramethoxy-7-methyl-5,6-dihydrobenz[c]acridine] | > 1000
11 | COc1cc2ccc3c(C)c4cc(OC)c(OC)cc4nc3c2cc1OC [Compound 7, 2,3,9,10-Tetramethoxy-7-methylbenz[c]acridine] | > 1000
12 | COc1cc2c(cc1OC)-c1c(c(C)c3cc(OC)c(OC)cc3[n+]1C)CC2 [Compound 8, 2,3,9,10-Tetramethoxy-7,1 2-dimethyl-5,6-dihydrobenz[c]acridinium methosulfate] | > 1000
13 | COc1cc2ccc3c(C)c4cc(OC)c(OC)cc4[n+](C)c3c2cc1OC [Compound 9, 2,3,9,10-Tetramethoxy-7,1 2-dimethylbenz [c]acridinium methosulfate] | > 1000

Continued, values first:

Row | Topo I-mediated DNA cleavage (REC, Relative Effective Concentration) | SMILES
14 | 100 | COc1cc2c(cc1OC)-c1cc3cc(OC)c(OC)cc3nc1CC2 [Compound 13a, 2,3,9,10-Tetramethoxy-5,6-dihydrobenz[a]acridine]
15 | 100 | COc1cc2c(cc1OC)-c1cc3cc4c(cc3nc1CC2)OCO4 [Compound 13b, 2,3,-Dimethoxy-9,10-methylenedioxy-5,6-dihydrobenz[a]acridine]
16 | 1000 | COc1cc2cc3c(nc2cc1OC)CCc1ccccc1-3 [Compound 13c, 9,10-Dimethoxy-5,6-dihydrobenz[a]acridine]

test system: camptothecin-resistant CPT-K5 cells; assay: MTT-microtiter plate tetrazolinium cytotoxicity assay (MTA), CPT-K5; format: cell-based, human; conditions: Homo sapiens, CPT-K5, 96 h, read-out: Cytotoxicity IC50, CPT-K5
Protocol: (§2) The IC50 of the drugs tested were determined by the MTT-microtiter plate tetrazolinium cytotoxicity assay (MTA) (Mosmann, T., J. Immunol. Methods 65:55-63 (1983); Denizot et al., J. Immunol. Methods 89:271-277 (1986)). Human lymphoblast RPMI 8402 cells and their camptothecin-resistant CPT-K5 cells (Andoh et al., Proc. Natl. Acad. Sci., USA 84:5565-5569 (1987)) were kindly provided by Dr. Toshiwo Andoh (Aichi Cancer Center Research Institute, Nagoya, Japan). The cell lines A2780 and its camptothecin-resistant derivative CPT-2000 were a generous gift of Dr. Jaulang Hwang (Institute of Molecular Biology, Academia sinica, Taiwan). Cells (2000 cells/well, seeded in […] growth medium) were grown in suspension at 37° C. in 5% CO2 and maintained by regular passage in RPMI medium supplemented with 10% heat inactivated fetal bovine serum, L-glutamine (2 mM), penicillin (100 U/mi), and streptomycin (0.1 mg/ml). The cells were exposed continuously for 4 days to drug concentrations ranging from 100 ug/ml to 1.0 ng/ml in ten fold dilutions, and assayed at the end of the fourth day. Each concentration and the no drug control were repeated at least twice in 6 replica wells. The results were plotted and the IC50 then measured. The drug sensitive human epidermoid carcinoma KB 3-1 cell line and its vinblastine-selected multidrug-resistant variant KB-V1 cells (Akiyama et al., Genetics 11:117-126 (1985)) were kindly provided by Dr. Michael Gottesmann (National Cancer Institute). They were grown as monolayer cultures at 37° C. in 5% CO2 and maintained by regular passage in Dulbecco's minimal essential medium supplemented with 10% heat inactivated fetal bovine serum. KB-V1 cells were maintained in the presence of […] vinblastine.

Row | SMILES | IC50 [µM]
17 | CC[C@@]1(O)C(=O)OCc2c1cc1n(c2=O)Cc2cc3ccccc3nc2-1 [CPT, Camptothecin, reference compound] | > 10
18 | COc1cc2c(cc1OC)-c1nc3cc(OC)c(OC)cc3c(C)c1CC2 [Compound 6, 2,3,9,10-Tetramethoxy-7-methyl-5,6-dihydrobenz[c]acridine] | > 137
19 | COc1cc2ccc3c(C)c4cc(OC)c(OC)cc4nc3c2cc1OC [Compound 7, 2,3,9,10-Tetramethoxy-7-methylbenz[c]acridine] | 5.5
20 | COc1cc2c(cc1OC)-c1c(c(C)c3cc(OC)c(OC)cc3[n+]1C)CC2 [Compound 8, 2,3,9,10-Tetramethoxy-7,1 2-dimethyl-5,6-dihydrobenz[c]acridinium methosulfate] | 12.2
21 | COc1cc2ccc3c(C)c4cc(OC)c(OC)cc4[n+](C)c3c2cc1OC [Compound 9, 2,3,9,10-Tetramethoxy-7,1 2-dimethylbenz [c]acridinium methosulfate] | 1.2
22 | COc1cc2c(cc1OC)-c1cc3cc(OC)c(OC)cc3nc1CC2 [Compound 13a, 2,3,9,10-Tetramethoxy-5,6-dihydrobenz[a]acridine] | 7.1
23 | COc1cc2c(cc1OC)-c1cc3cc4c(cc3nc1CC2)OCO4 [Compound 13b, 2,3,-Dimethoxy-9,10-methylenedioxy-5,6-dihydrobenz[a]acridine] | 14.9
24 | COc1cc2cc3c(nc2cc1OC)CCc1ccccc1-3 [Compound 13c, 9,10-Dimethoxy-5,6-dihydrobenz[a]acridine] | 6.9

test system: Human lymphoblast RPMI 8402 cells; assay: MTT-microtiter plate tetrazolinium cytotoxicity assay (MTA), RPMI 8402; format: cell-based; conditions: Homo sapiens, RPMI 8402, 96 h, read-out: Cytotoxicity IC50, RPMI
Protocol: as §2

Row | SMILES | IC50 [µM]
25 | CC[C@@]1(O)C(=O)OCc2c1cc1n(c2=O)Cc2cc3ccccc3nc2-1 [CPT, Camptothecin, reference compound] | 0.004
26 | COc1cc2c(cc1OC)-c1nc3cc(OC)c(OC)cc3c(C)c1CC2 [Compound 6, 2,3,9,10-Tetramethoxy-7-methyl-5,6-dihydrobenz[c]acridine] | > 137
27 | COc1cc2ccc3c(C)c4cc(OC)c(OC)cc4nc3c2cc1OC [Compound 7, 2,3,9,10-Tetramethoxy-7-methylbenz[c]acridine] | 7
28 | COc1cc2c(cc1OC)-c1c(c(C)c3cc(OC)c(OC)cc3[n+]1C)CC2 [Compound 8, 2,3,9,10-Tetramethoxy-7,1 2-dimethyl-5,6-dihydrobenz[c]acridinium methosulfate] | 6.1
29 | COc1cc2ccc3c(C)c4cc(OC)c(OC)cc4[n+](C)c3c2cc1OC [Compound 9, 2,3,9,10-Tetramethoxy-7,1 2-dimethylbenz [c]acridinium methosulfate] | 1.2
30 | COc1cc2c(cc1OC)-c1cc3cc(OC)c(OC)cc3nc1CC2 [Compound 13a, 2,3,9,10-Tetramethoxy-5,6-dihydrobenz[a]acridine] | 7.1
31 | COc1cc2c(cc1OC)-c1cc3cc4c(cc3nc1CC2)OCO4 [Compound 13b, 2,3,-Dimethoxy-9,10-methylenedioxy-5,6-dihydrobenz[a]acridine] | 9
32 | COc1cc2cc3c(nc2cc1OC)CCc1ccccc1-3 [Compound 13c, 9,10-Dimethoxy-5,6-dihydrobenz[a]acridine] | 6.9
